{"source": "patent US20230293530A1", "about": "“AGENTS FOR SENSITIZING SOLID TUMORS TO TREATMENT” (Yeda Research and Development Co. Ltd., priority 2020, published 2023)", "key": {"[1]": {"test_system": "NSCLC PDX explants with autologous CD8+ T cells", "test": "Co-culture of NSCLC PDX tumor explants with autologous CD8+ T cells, IFNγ ELISA", "format": "cell-based, human", "conditions": "for IFNγ secretion by autologous CD8+ T cells, anti-PD1 plus mizoribine-treated explants: explants pre-treated with mizoribine 0.3 mM 10 hrs, nivolumab or pembrolizumab 20 µg/mL, 18 hours", "description": "Two patients bearing metastatic non-small cell lung cancer (NSCLC) were included in this study. Blood samples and fresh tumor tissue samples were procured just after their biopsy with patient consent and with Helsinki approval (number 0093-19-SOR). The samples were placed in serum free DMEM (Gibco) media then processed for implantation in NSG (NOD scid gamma) mice. Tumor tissue samples were implanted subcutaneously in dorsal flanks of the mice to form patient-derived xenografts (PDXs). All animal experiments were done under Institutional Animal Care and Use Committee (IACUC) of Ben-Gurion University of the Negev (BGU’s IACUC) according to specified protocols aiming to ensure animal welfare and reduce su □ ering. The Animal ethical clearance protocol number used for this research is IL-80-12-2015. After isolation of peripheral blood mononuclear cells (PBMCs) from the peripheral blood of the patients according to standard protocol using Lymphocyte Separation Medium (LSM, MP Biomedicals, SKU 0850494-CF), CD8^+ T cells were isolated from PBMCs by employing human CD8 Microbeads (Miltenyi Biotec, 130-045-201), LS column (Miltenyi Biotec, 130-042-401) and MidiMACS Separator (130-042-302) following manufacturer’s protocol. For culturing and maintenance of CD8 T cells, RPMI containing 10% human male AB plasma (Sigma, H4522), 1 mM sodium pyruvate, 2 mM L-glutamine, 0.1 mM MEM non-essential amino acids, 1% penicillin/streptomycin, 10 mM HEPES (Life Technologies), 200 IU/mL recombinant human IL-2 (PeproTech) and 50 ng/mL anti-human CD3 Antibody (BioLegend, 317302) were used for the first 48 hrs followed by culturing and passaging in media containing 200 IU/mL of IL-2.\n2×2×2 mm^3 tumor tissue explants were cut from PDXs with a specific tissue cutter and seeded singly in 48 well flat-bottom plates and incubated with either mizoribine (0.3 mM) in 400 µl of media or with only media for 10 hrs. Then, explants were washed once and transferred into new 48 well flat-bottom plates containing 2×10^5 CD8+T cells/well along with nivolumab (Opdivo, 20 µg/mL), pembrolizumab (Keytruda, 20 µg/mL) or mock solventin fresh 400 µl RPMI containing 20 IU/ml ofIL-2. After 18 hours of incubation, the supernatant was collected from the wells and then assayed for standard IFNγ ELISA assay (ELISA MAX, Biolegend) according to manufacturer’s instructions.\nTwo patients bearing metastatic non-small cell lung cancer (NSCLC) were included in this study. Blood samples and fresh tumor tissue samples were procured just after their biopsy with patient consent and with Helsinki approval (number 0093-19-SOR). The samples were placed in serum free DMEM (Gibco) media then processed for implantation in NSG (NOD scid gamma) mice (NOD.Cg-Prkdcscid Il2rgtm1Wjl, The Jackson Laboratory). Tumor tissue samples were implanted subcutaneously in dorsal flanks of the 7-9 weeks old male mice to form patient-derived xenografts (PDXs).\nAfter isolation of peripheral blood mononuclear cells (PBMCs) from the peripheral blood of the patients according to standard protocol using Lymphocyte Separation Medium (LSM, MP Biomedicals, SKU 0850494-CF), CD8^+ T cells were isolated from PBMCs by employing human CD8 Microbeads (Miltenyi Biotec, 130-045-201), LS column (Miltenyi Biotec, 130-042-401) and MidiMACS Separator (130-042-302) following manufacturer’s protocol. For culturing and maintenance of CD8 T cells, RPMI containing 10% human male AB plasma (Sigma, H4522), 1 mM sodium pyruvate, 2 mM L-glutamine, 0.1 mM MEM non-essential amino acids, 1% penicillin/streptomycin, 10 mM HEPES (Life Technologies), 200 IU/mL recombinant human IL-2 (PeproTech) and 50 ng/mL anti-human CD3 Antibody (BioLegend, 317302) were used for the first 48 hrs followed by culturing and passaging in media containing 200 IU/mL of IL-2.\nPDXs from patients with lung cancer non responsive to anti-PD1 were exposed to no treatment, to mizoribine, or to either EDHB (left panel) or Viagra (right panel). […]"}, "4T1 breast cancer cells": {"test_system": "4T1 breast cancer cells", "test": "In-vitro EDHB nucleotide analysis by LC-MS, 4T1", "format": "cell-based, murine", "conditions": "4T1 cells, 200 uM EDHB, 8 hours", "source_text": "LC-MS analysis: The LC-MS/MS instrument consisting of an Acquity I-class UPLC system (Waters) and Xevo TQ-S triple quadrupole mass spectrometer (Waters), equipped with an electrospray ion source, and operated in positive ion mode was used for analysis of nucleoside monophosphates. MassLynx and TargetLynx software (version 4.1, Waters) were applied for the acquisition and analysis of data. Chromatographic separation was done on a 100 mm × 2.1 mm internal diameter, 1.8-µm UPLC HSS T3 column equipped with 50 mm × 2.1 mm internal diameter, 1.8-µm UPLC HSS T3 pre-column (both Waters Acquity) with mobile phases A (10 mM ammonium acetate and 5 mM ammonium hydrocarbonate buffer, pH 7.65 adjusted with 10% acetic acid) and B (acetonitrile) at a flow rate of 0.3 mL min-1 and column temperature 25° C. […] Nucleotide concentration was calculated using a standard curve of the relevant nucleotide concentration in each sample. Standard curves included increasing concentration of all measured nucleotides ranging from 0-10 ug/ml that were positioned at the beginning and at the end of each run. All the calculated values for the different nucleotides in each sample fell within the standard curve range. […]"}, "4T1 cells": {"test_system": "4T1 cells", "test": "In-vivo EDHB experiment, 4T1 tumors in mammary fat pad", "parameters": "species or system female BALB/c mice", "experimental": "In-vivo EDHB experiment: Eight-week-old female BALB/c mice were inoculated with 4T1 in the mammary fat pad (1 × 10^6 cells). ethyl 3,4 dihydroxybenzoate (EDHB) treatment was started after 4 days when the primary tumor nodule was established and palpable. EDHB (40 mg per kg) was intraperitoneally injected daily into cancer-bearing mice. EDHB was initially dissolved in 100% Ethanol and diluted to required concentration in saline. 95% Saline/5% Ethanol mix without drug was injected as a vehicle to control animals. Following injection, mice were treated with 250 ug of anti PD-1 antibody on days 7, 11, 13, 15. On day 19, mice were euthanized and tumors were removed and weighted."}, "A549 cells": {"test_system": "A549 cells", "test": "Nucleotide levels by LC-MS with or without methotrexate", "format": "cell-based", "conditions": "1.2 µM Methotrexate", "experimental": "Methotrexate treatment: A549 cells were grown for 48 hr in control medium or supplemented with 1.2 µM Methotrexate (Holland-Moran). Nucleotide levels were measured as described below by LC-MS. Purine/pyrimidine ratio was calculated by dividing (AMP+GMP+ATP+ADP+GTP) concentration by (UMP+CMP+TMP+UTP+CTP+TTP) concentration.\nLC-MS analysis: The LC-MS/MS instrument consisting of an Acquity I-class UPLC system (Waters) and Xevo TQ-S triple quadrupole mass spectrometer (Waters), equipped with an electrospray ion source, and operated in positive ion mode was used for analysis of nucleoside monophosphates. MassLynx and TargetLynx software (version 4.1, Waters) were applied for the acquisition and analysis of data. Chromatographic separation was done on a 100 mm × 2.1 mm internal diameter, 1.8-µm UPLC HSS T3 column equipped with 50 mm × 2.1 mm internal diameter, 1.8-µm UPLC HSS T3 pre-column (both Waters Acquity) with mobile phases A (10 mM ammonium acetate and 5 mM ammonium hydrocarbonate buffer, pH 7.65 adjusted with 10% acetic acid) and B (acetonitrile) at a flow rate of 0.3 mL min-1 and column temperature 25° C. A gradient was used as follows: for 0-3 min the column was held at 0.2% B, then 3-3.5 min a linear increase to 100% B, 3.5-4.0 min held at 100% B, 4.0-4.5 min back to 0.2% B and equilibration at 0.2% B for 2.5 min. Samples kept at 8° C. were automatically injected in a volume of 3 µl. For mass spectrometry, argon was used as the collision gas with a flow of 0.10 mL min-1. The capillary voltage was set to 2.50 kV, source temperature 150° C., desolvation temperature 400° C., cone gas flow 150 1 hr-1, desolvation gas flow 800 1 hr-1. Nucleotide concentration was calculated using a standard curve of the relevant nucleotide concentration in each sample. Standard curves included increasing concentration of all measured nucleotides ranging from 0-10 ug/ml that were positioned at the beginning and at the end of each run. All the calculated values for the different nucleotides in each sample fell within the standard curve range. Analytes were detected in positive mode using multiple-reaction monitoring listed in Lee, J. S. et al. 2018 (REF_9).\nNucleotide levels of 4T1 cells grown either with or without 1.2 µM Methotrexate (Holland-Moran) for 48 h, were measured and quantified by liquid chromatography-mass spectrometry (LC-MS) as µg/mg protein."}}}
{"compound": "pembrolizumab: anti-PD1 antibody", "values": [{"measurement": "IFNγ secretion by autologous CD8+ T cells, anti-PD1 plus mizoribine-treated explants", "setting": "[1]", "result": "significant elevation in IFNγ secretion"}]}
{"compound": "CCOC(=O)c1ccc(O)c(O)c1", "note": "[EDHB, Ethyl 3,4 dihydroxybenzoate]", "values": [{"measurement": "cellular deoxypyrimidine to deoxypurine ratio (pyrimidine / purine ratio)", "setting": "4T1 breast cancer cells", "result": "increase in pyrimidine / purine ratio"}, {"measurement": "response to anti-PD1 therapy (IFN-g response) in PDX of non responsive patients", "setting": "[1]; PDXs from lung cancer patients non responsive to anti-PD1, IFN-g measured following anti-PD1", "result": "increases response to anti-PD1 therapy"}, {"measurement": "tumor weight, EDHB and anti PD-1 combination treatment", "setting": "4T1 cells; 40 mg/kg EDHB IP daily from day 4, 250 ug anti PD-1 IP days 7, 11, 13, 15", "result": "reduces tumor weight"}, {"measurement": "total weight of the mice", "setting": "4T1 cells; 40 mg/kg EDHB IP daily, with anti PD-1", "result": "did not cause any change"}]}
{"compound": "CN(Cc1cnc2nc(N)nc(N)c2n1)c1ccc(C(=O)N[C@@H](CCC(=O)O)C(=O)O)cc1", "note": "[Methotrexate]", "values": [{"measurement": "AMP level, Methotrexate Treatment", "setting": "A549 cells; 48 h, 4T1 cells", "result": 483.2, "unit": "µg/mg pt"}, {"measurement": "ATP level, Methotrexate Treatment", "setting": "A549 cells; 48 h, 4T1 cells", "result": 75.1, "unit": "µg/mg pt"}, {"measurement": "CMP level, Methotrexate Treatment", "setting": "A549 cells; 48 h, 4T1 cells", "result": 7.3, "unit": "µg/mg pt"}, {"measurement": "CTP level, Methotrexate Treatment", "setting": "A549 cells; 48 h, 4T1 cells", "result": 12.0, "unit": "µg/mg pt"}, {"measurement": "GMP level, Methotrexate Treatment", "setting": "A549 cells; 48 h, 4T1 cells", "result": 28.46, "unit": "µg/mg pt"}, {"measurement": "GTP level, Methotrexate Treatment", "setting": "A549 cells; 48 h, 4T1 cells", "result": 16.7, "unit": "µg/mg pt"}, {"measurement": "TMP level, Methotrexate Treatment", "setting": "A549 cells; 48 h, 4T1 cells", "result": 0.0078, "unit": "µg/mg pt"}, {"measurement": "TTP level, Methotrexate Treatment", "setting": "A549 cells; 48 h, 4T1 cells", "result": 0.004432, "unit": "µg/mg pt"}, {"measurement": "UMP level, Methotrexate Treatment", "setting": "A549 cells; 48 h, 4T1 cells", "result": 38.39, "unit": "µg/mg pt"}, {"measurement": "UTP level, Methotrexate Treatment", "setting": "A549 cells; 48 h, 4T1 cells", "result": 36.9, "unit": "µg/mg pt"}, {"measurement": "purine to pyrimidine ratio", "setting": "A549 cells; high ASS1 expressing lung cancer cells (A549), 48 hr", "result": "decreased their purine to pyrimidine ratio"}]}
{"compound": "nivolumab: anti-PD1 antibody", "values": [{"measurement": "IFNγ secretion by autologous CD8+ T cells, anti-PD1 plus mizoribine-treated explants", "setting": "[1]", "result": "significant elevation in IFNγ secretion"}]}
